This note sets out measurements from patent publication US10538498B2, “1,3,4-oxadiazole sulfonamide derivative compounds as histone deacetylase 6 inhibitor, and the pharmaceutical composition comprising the same” (Chong Kun Dang Pharmaceutical Corp., priority 2015, dated 2020).

One may read the IC50 as the concentration that inhibits the measured activity by half.

This assay deals with T1, human recombinant HDAC6 (Homo sapiens, UniProt Q9UBN7).
T1 construct: purchased Calbiochem 382180
T1 sequence (Q9UBN7 1-1215): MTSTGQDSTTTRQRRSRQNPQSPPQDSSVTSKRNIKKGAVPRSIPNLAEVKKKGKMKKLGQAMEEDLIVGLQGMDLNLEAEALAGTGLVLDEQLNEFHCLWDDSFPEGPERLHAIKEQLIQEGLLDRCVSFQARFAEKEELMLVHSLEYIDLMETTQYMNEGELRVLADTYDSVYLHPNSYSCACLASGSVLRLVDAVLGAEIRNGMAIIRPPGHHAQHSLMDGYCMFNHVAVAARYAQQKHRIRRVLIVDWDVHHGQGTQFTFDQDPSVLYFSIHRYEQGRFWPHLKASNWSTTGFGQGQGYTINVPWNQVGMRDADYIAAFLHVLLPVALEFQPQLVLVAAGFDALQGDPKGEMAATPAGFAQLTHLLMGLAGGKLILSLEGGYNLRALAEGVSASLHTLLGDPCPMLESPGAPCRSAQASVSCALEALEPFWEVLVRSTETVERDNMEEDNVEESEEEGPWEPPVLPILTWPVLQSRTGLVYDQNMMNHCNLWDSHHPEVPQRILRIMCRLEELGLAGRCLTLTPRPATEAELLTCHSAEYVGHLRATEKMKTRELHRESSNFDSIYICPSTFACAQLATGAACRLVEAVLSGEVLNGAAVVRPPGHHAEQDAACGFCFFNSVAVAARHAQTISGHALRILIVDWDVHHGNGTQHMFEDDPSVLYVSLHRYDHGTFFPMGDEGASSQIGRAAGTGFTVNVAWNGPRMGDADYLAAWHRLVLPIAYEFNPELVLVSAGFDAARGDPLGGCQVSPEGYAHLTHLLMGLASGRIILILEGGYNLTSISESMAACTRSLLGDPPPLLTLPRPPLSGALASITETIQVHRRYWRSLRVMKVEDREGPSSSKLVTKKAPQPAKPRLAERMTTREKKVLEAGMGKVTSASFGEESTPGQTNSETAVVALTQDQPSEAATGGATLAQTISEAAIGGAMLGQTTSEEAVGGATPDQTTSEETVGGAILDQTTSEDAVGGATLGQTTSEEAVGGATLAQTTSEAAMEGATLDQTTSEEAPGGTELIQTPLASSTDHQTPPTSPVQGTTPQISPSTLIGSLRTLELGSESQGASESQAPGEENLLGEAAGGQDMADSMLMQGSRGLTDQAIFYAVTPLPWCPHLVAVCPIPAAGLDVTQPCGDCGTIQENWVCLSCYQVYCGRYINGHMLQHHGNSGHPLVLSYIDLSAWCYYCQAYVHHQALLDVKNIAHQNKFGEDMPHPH
The assay is described as follows: HDAC6 enzyme activity inhibition assay (HDAC Fluorimetric Drug Discovery Kit). It counts as biochemical. The following applies: for HDAC6 selectivity (fold): HDAC1 vs HDAC6; for IC50: same protocol as the HDAC1 enzyme activity test. Put shortly: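 First, compound in 5-fold dilution steps is combined with 0.3 μg enzyme and 10 μM Fluor de Lys-SIRT1 substrate. After 60 min at 30° C, developer is added for 30 min. Fluorescence at Ex 360/Em 460 then gives IC50 values.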

For `CS(=O)(=O)N(Cc1ccc(-c2nnc(C(F)F)o2)cc1F)c1ccccc1F` [Compound 11274], the “HDAC6 selectivity (fold)” value was determined as 2439 fold and the IC50 was determined as 41 nM.
Taken in the same sequence, the figures for `CS(=O)(=O)N(Cc1ccc(-c2nnc(C(F)(F)F)o2)cc1F)c1ccc(F)cc1` [Compound 11275, N-(2-fluoro-4-(5-(trifluoromethyl)-1,3,4-oxadiazol-2-yl)benzyl)-N-(4-fluorophenyl)methanesulfonamide] were 1370 fold and 73 nM.
For `CS(=O)(=O)N(Cc1ccc(-c2nnc(C(F)F)o2)cc1F)c1ccc(F)cc1` [Compound 11276, N-(4-(5-(difluoromethyl)-1,3,4-oxadiazol-2-yl)-2-fluorobenzyl)-N-(4-fluorophenyl)methanesulfonamide] the same measures were 4000 fold and 25 nM.
Taken in the same sequence, the figures for `CS(=O)(=O)N(Cc1ccc(-c2nnc(C(F)(F)F)o2)cc1F)c1ccc(Br)cc1` [Compound 11277, N-(4-bromophenyl)-N-(2-fluoro-4-(5-(trifluoromethyl)-1,3,4-oxadiazol-2-yl)benzyl)methanesulfonamide] were 535 fold and 187 nM.
In the case of `CS(=O)(=O)N(Cc1ccc(-c2nnc(C(F)F)o2)cc1F)c1ccc(Br)cc1` [Compound 11278, N-(4-bromophenyl)-N-(4-(5-(difluoromethyl)-1,3,4-oxadiazol-2-yl)-2-fluorobenzyl)methanesulfonamide], the “HDAC6 selectivity (fold)” value was 1923 fold and the IC50 is 52 nM.
For `CS(=O)(=O)N(Cc1ccc(-c2nnc(C(F)(F)F)o2)cc1F)c1ccccc1Cl` [Compound 11279, N-(2-chlorophenyl)-N-(2-fluoro-4-(5-(trifluoromethyl)-1,3,4-oxadiazol-2-yl)benzyl)methanesulfonamide] the same measures were 901 fold and 111 nM.
As for `CS(=O)(=O)N(Cc1ccc(-c2nnc(C(F)F)o2)cc1F)c1ccccc1Cl` [Compound 11280, N-(2-chlorophenyl)-N-(4-(5-(difluoromethyl)-1,3,4-oxadiazol-2-yl)-2-fluorobenzyl)methanesulfonamide], the “HDAC6 selectivity (fold)” value worked out at 1266 fold and the IC50 was found to be 79 nM.
Taken in the same sequence, the figures for `CS(=O)(=O)N(Cc1ccc(-c2nnc(C(F)F)o2)cc1F)c1ccc(Cl)cc1` [Compound 11281, N-(4-chlorophenyl)-N-(4-(5-(difluoromethyl)-1,3,4-oxadiazol-2-yl)-2-fluorobenzyl)methanesulfonamide] were 2273 fold and 44 nM.
For `Cc1ccc(N(Cc2ccc(-c3nnc(C(F)(F)F)o3)cc2F)S(C)(=O)=O)cc1` [Compound 11282, N-(2-fluoro-4-(5-(trifluoromethyl)-1,3,4-oxadiazol-2-yl)benzyl)-N-(p-tolyl)methanesulfonamide] the same measures were 781 fold and 128 nM.
For `Cc1ccc(N(Cc2ccc(-c3nnc(C(F)F)o3)cc2F)S(C)(=O)=O)cc1` [Compound 11283, N-(4-(5-(difluoromethyl)-1,3,4-oxadiazol-2-yl)-2-fluorobenzyl)-N-(p-tolyl)methanesulfonamide] the same measures were 1852 fold and 54 nM.
For `CS(=O)(=O)N(Cc1ccc(-c2nnc(C(F)F)o2)cc1F)c1cncc(F)c1` [Compound 11284, N-(4-(5-(difluoromethyl)-1,3,4-oxadiazol-2-yl)-2-fluorobenzyl)-N-(5-fluoropyridin-3-yl)methanesulfonamide], the “HDAC6 selectivity (fold)” value is 3704 fold and the IC50 turned out to be 27 nM.
For `COC(=O)CCS(=O)(=O)N(Cc1ccc(-c2nnc(C(F)F)o2)cc1F)c1ccccc1` [Compound 11287, methyl 3-(N-(4-(5-(difluoromethyl)-1,3,4-oxadiazol-2-yl)-2-fluorobenzyl)-N-phenylsulfamoyl)propanoate] the same measures were 3448 fold and 29 nM.
For the compound `COCC(C)CS(=O)(=O)N(Cc1ccc(-c2nnc(C(F)F)o2)cc1F)c1ccccc1` (stereo not drawn) [Compound 11288], the “HDAC6 selectivity (fold)” value worked out at 2128 fold and the IC50 is 47 nM.
`CCCS(=O)(=O)N(Cc1ccc(-c2nnc(C(F)F)o2)cc1F)c1ccccc1` [Compound 11289, N-(4-(5-(difluoromethyl)-1,3,4-oxadiazol-2-yl)-2-fluorobenzyl)-N-phenylpropane-1-sulfonamide]: the “HDAC6 selectivity (fold)” value is on record as 3571 fold and the IC50 is 28 nM.
As to `CCCCS(=O)(=O)N(Cc1ccc(-c2nnc(C(F)F)o2)cc1F)c1ccccc1` [Compound 11290, N-(4-(5-(difluoromethyl)-1,3,4-oxadiazol-2-yl)-2-fluorobenzyl)-N-phenylbutane-1-sulfonamide], the “HDAC6 selectivity (fold)” value is 2041 fold and the IC50 stood at 49 nM.
As for `O=S(=O)(C1CC1)N(Cc1ccc(-c2nnc(C(F)F)o2)cc1F)c1ccccc1` [Compound 11291, N-(4-(5-(difluoromethyl)-1,3,4-oxadiazol-2-yl)-2-fluorobenzyl)-N-phenylcyclopropanesulfonamide], the “HDAC6 selectivity (fold)” value amounted to 3226 fold and the IC50 was determined as 31 nM.
Taken in the same sequence, the figures for `CS(=O)(=O)N(Cc1ccc(-c2nnc(C(F)F)o2)cc1F)C1CCCCC1` [Compound 11292, N-cyclohexyl-N-(4-(5-(difluoromethyl)-1,3,4-oxadiazol-2-yl)-2-fluorobenzyl)methanesulfonamide] were 1786 fold and 56 nM.
`CS(=O)(=O)N(Cc1ccc(-c2nnc(C(F)(F)F)o2)cn1)c1cccc(C(F)(F)F)c1` [Compound 11323, N-((5-(5-(trifluoromethyl)-1,3,4-oxadiazol-2-yl)pyridin-2-yl)methyl)-N-(3-(trifluoromethyl)phenyl)methanesulfonamide]: the “HDAC6 selectivity (fold)” value was 909 fold and the IC50 worked out at 110 nM.
Take `CS(=O)(=O)N(Cc1ccc(-c2nnc(C(F)F)o2)cn1)c1cccc(C(F)(F)F)c1` [Compound 11324, N-((5-(5-(difluoromethyl)-1,3,4-oxadiazol-2-yl)pyridin-2-yl)methyl)-N-(3-(trifluoromethyl)phenyl)methanesulfonamide]: the “HDAC6 selectivity (fold)” value was determined as 4762 fold and the IC50 was determined as 21 nM.
For `CC(C)(C)OC(=O)N1CCC(N(Cc2ccc(-c3nnc(C(F)F)o3)cc2F)S(C)(=O)=O)CC1` [Compound 11338, tert-butyl 4-(N-(4-(5-(difluoromethyl)-1,3,4-oxadiazol-2-yl)-2-fluorobenzyl)methylsulfonamido)piperidine-1-carboxylate] the same measures were 195 fold and 513 nM.
For `CS(=O)(=O)N(Cc1ccc(-c2nnc(C(F)F)o2)cn1)c1ccc2c(c1)OCO2` [Compound 11345, N-(benzo[d][1,3]dioxol-5-yl)-N-((5-(5-(difluoromethyl)-1,3,4-oxadiazol-2-yl)pyridin-2-yl)methyl)methanesulfonamide], the “HDAC6 selectivity (fold)” value turned out to be 3571 fold and the IC50 is 28 nM.
Taken in the same sequence, the figures for `COc1ccc(N(Cc2ccc(-c3nnc(C(F)F)o3)cn2)S(C)(=O)=O)cc1` [Compound 11346, N-((5-(5-(difluoromethyl)-1,3,4-oxadiazol-2-yl)pyridin-2-yl)methyl)-N-(4-methoxyphenyl)methanesulfonamide] were 4348 fold and 23 nM.
On to `CS(=O)(=O)N(Cc1ccc(-c2nnc(C(F)F)o2)cc1)c1ccc(Br)cn1` [Compound 11347, N-(5-bromopyridin-2-yl)-N-(4-(5-(difluoromethyl)-1,3,4-oxadiazol-2-yl)benzyl)methanesulfonamide], for which the “HDAC6 selectivity (fold)” value is recorded as 971 fold and the IC50 stood at 103 nM.
For `CS(=O)(=O)N(Cc1ccc(-c2nnc(C(F)F)o2)cc1)c1ccc(Cl)cn1` [Compound 11348] the same measures were 758 fold and 132 nM.
